# Read-outs that look alike come from different tables or passages of the source.
# Experiments:
# [1] = system: Klebsiella pneumoniae ATCC 33495; assay: MIC, doubling dilution in 96-well microtitre plate; assay type: cell-based
# Procedure: (§1) The compound was tested as follows. […] The wells were inoculated with organism ([…] of medium containing 10^6 cfu/mL) and the plates were incubated at 37° C. overnight. Where growth of organism occurred this was observed as a small button when viewed from underneath the plate. The MIC was determined as the lowest concentration inhibiting growth.
# Micrococcus luteus = assay: MIC, doubling dilution in 96-well microtitre plate; assay type: cell-based
# Procedure: as §1
# Enterococcus faecium = assay: MIC, doubling dilution in 96-well microtitre plate; assay type: cell-based; details: Enterococcus faecium ATCC 10541
# Procedure: as §1
# E. faecium = assay: MIC, agar dilution, multipoint inoculator; assay type: cell-based, Enterococcus faecium; details: Enterococcus faecium, upper value of MIC reading, read-out: MIC
# Method in brief: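 MHA agar dilution, multipoint inoculation, 10^4 CFU/spot; MIC read per compound.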
# Bacillus megarerium = assay: MIC, agar dilution, multipoint inoculator; assay type: cell-based
# Procedure: (§2) This activity was measured using a multipoint inoculator method as follows. The MIC for each compound was measured using an agar dilution method (Onda, H., et al., Int. J. Antimicrob. Agents. 18, 263 (2001)) (Mueller Hinton agar) by means of a multipoint inoculator delivering 10^4 colony forming units per spot.
# (§3) 4Pycq was also tested against the following bacteria, using the multipoint inoculator method.
# Micrococcus roseus = assay: MIC, agar dilution, multipoint inoculator; assay type: cell-based; details: Kocuria rosea
# Procedure: as §2, §3
# Bacillus polymyxa = assay: MIC, agar dilution, multipoint inoculator; assay type: cell-based; details: Paenibacillus polymyxa
# Procedure: as §2, §3
# Bacillus cereus = assay: MIC, agar dilution, multipoint inoculator; assay type: cell-based
# Procedure: as §2, §3
"MIC (E. faecium; 18 h, E. faecium ACTCC 10541) [µg/mL]","MIC (E. faecium; NCTC7171, 18 h, E. faecium NCTC 7171) [µg/mL]",MIC (Bacillus megarerium) [µg/mL],MIC (Micrococcus roseus) [µg/mL],MIC (Bacillus polymyxa) [µg/mL],MIC (Bacillus cereus) [µg/mL],SMILES,MIC [1] [µg/mL],MIC (Micrococcus luteus) [µg/mL],MIC (Enterococcus faecium) [µg/mL]
–,–,–,–,–,–,NC(=NN=Cc1ccc([N+](=O)[O-])o1)c1cc[n+]([O-])cc1 (mixture of isomers) [Compound 4PYOfi],32 to 64,8 to 16,8 to 16
4,4,0.5 to 1,0.5 to 1,2 to 4,2 to 4,CC(C)(C)c1cc(/C=N/N=C(\N)c2ccncc2)c(O)c(C(C)(C)C)c1 [Compound 4PYcq],–,–,–

# Source: patent publication US20080096894A1, “Anti-Bacterial Compounds” (ASTON UNIVERSITY, priority 2005, published 2008)
